The text below walks through data of ChEMBL document CHEMBL5385846, “Discovery and development of palmatine analogues as anti-NASH agents by activating farnesoid X receptor (FXR)” (Eur J Med Chem, 2023).

Series [1] has as its target Collagen alpha-1(I) chain (Homo sapiens) (UniProt P02452). The experiment in a line: Inhibition of COL1A1 (unknown origin) expressed in human LX2 cells at 20 micromol/L incubated for 48 hrs by Bright-Glo luciferase assay relative to control. In kind it is cell-based. As to conditions: dose 20.0 µmol/L.
Series [2] in a line: Cytotoxicity against human LX2 cells assessed as inhibition of cell growth. In kind it is toxicity, cell-based, LX-2.
The test system of series [3] is COL1A1. The experiment in a line: Selectivity index, ratio of CC50 for cytotoxicity against human LX2 cells to IC50 for inhibition of COL1A1 (unknown origin) expressed in human LX2 cells. In kind it is toxicity, cell-based. As to conditions: read-out: Ratio CC50/IC50.

Collagen alpha-1(I) chain (Homo sapiens), sequence (P02452 whole entry): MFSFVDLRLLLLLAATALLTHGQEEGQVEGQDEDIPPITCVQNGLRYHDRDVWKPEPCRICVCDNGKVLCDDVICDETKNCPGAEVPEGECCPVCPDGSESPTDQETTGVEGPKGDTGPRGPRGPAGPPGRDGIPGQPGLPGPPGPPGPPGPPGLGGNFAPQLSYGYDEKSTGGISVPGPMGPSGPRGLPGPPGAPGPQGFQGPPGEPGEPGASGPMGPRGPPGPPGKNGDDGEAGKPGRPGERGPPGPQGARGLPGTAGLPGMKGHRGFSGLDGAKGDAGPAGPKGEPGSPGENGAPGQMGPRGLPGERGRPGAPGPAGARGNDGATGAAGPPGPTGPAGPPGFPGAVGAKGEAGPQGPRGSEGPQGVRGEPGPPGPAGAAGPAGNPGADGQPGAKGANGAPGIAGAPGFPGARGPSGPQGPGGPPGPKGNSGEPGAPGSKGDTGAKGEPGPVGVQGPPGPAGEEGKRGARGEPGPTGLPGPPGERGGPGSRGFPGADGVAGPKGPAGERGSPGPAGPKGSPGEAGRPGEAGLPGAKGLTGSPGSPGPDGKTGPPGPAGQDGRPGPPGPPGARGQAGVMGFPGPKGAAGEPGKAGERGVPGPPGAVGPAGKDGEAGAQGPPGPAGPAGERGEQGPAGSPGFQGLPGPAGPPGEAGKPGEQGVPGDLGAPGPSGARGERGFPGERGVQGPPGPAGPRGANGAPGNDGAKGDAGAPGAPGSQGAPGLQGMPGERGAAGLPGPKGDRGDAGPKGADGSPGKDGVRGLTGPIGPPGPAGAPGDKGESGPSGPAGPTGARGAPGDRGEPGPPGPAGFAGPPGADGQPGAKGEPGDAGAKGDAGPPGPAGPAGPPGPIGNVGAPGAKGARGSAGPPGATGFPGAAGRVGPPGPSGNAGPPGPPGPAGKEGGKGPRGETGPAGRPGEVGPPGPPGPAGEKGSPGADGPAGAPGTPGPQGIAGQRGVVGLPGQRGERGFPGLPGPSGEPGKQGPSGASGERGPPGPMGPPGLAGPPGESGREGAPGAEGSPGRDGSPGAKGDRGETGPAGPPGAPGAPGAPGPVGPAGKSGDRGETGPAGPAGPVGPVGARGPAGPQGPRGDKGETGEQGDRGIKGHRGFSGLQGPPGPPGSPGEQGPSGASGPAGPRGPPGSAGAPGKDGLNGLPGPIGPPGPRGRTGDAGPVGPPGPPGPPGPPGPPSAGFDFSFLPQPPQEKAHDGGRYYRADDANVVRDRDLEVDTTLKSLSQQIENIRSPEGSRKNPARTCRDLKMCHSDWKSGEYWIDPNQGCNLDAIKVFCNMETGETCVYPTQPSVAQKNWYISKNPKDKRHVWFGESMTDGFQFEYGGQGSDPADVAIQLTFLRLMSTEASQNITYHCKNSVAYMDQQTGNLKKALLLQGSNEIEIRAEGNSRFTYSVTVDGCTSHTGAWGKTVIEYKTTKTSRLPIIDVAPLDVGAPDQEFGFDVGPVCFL

Usually inhibition stands for the percentage by which the read-out fell short of the control. Read a high inhibition as a response far below the control. In series [1], `COc1cc2c(cc1OC)-c1cc3ccc(OC)c(NCc4ccccc4)c3c[n+]1CC2` returned an inhibition of 25.4%.

In the case of `COc1cc2c(cc1OC)-c1c(Cc3ccc(F)cc3)c3ccc(OC)c(OC)c3c[n+]1CC2`, the inhibition in series [1] worked out at 22.6%.

As to `COc1cccc(COc2c(OC)ccc3cc4[n+](cc23)CCc2cc(OC)c(OC)cc2-4)c1`, the inhibition in series [1] was 21.4%.

With `COc1cc2c(cc1OC)-c1c(Cc3cccc(F)c3)c3ccc(OC)c(OC)c3c[n+]1CC2`, the inhibition in series [1] worked out at 24.8%.

`COc1cc2c(cc1OC)-c1c(Cc3ccccc3C#N)c3ccc(OC)c(OC)c3c[n+]1CC2`: the inhibition in series [1] amounted to 24.9%.

On to `COc1cc2c(cc1OC)-c1cc3ccc(OC)c(OC(=O)c4ccoc4C)c3c[n+]1CC2`, for which, in series [1], the inhibition came to 9.91%.

With `COc1cc2c(cc1OC)-c1cc3ccc(OC)c(NC(=O)C4CCCC4)c3c[n+]1CC2`, the inhibition in series [1] worked out at 10.8%.

The compound `COc1cc2c(cc1OC)-c1cc3ccc(OC)c(OCc4ccc(C#N)cc4)c3c[n+]1CC2` had an inhibition in series [1] of 5.2%.

For the compound `CCCCCCCCC(=O)Nc1c(OC)ccc2cc3[n+](cc12)CCc1cc(OC)c(OC)cc1-3`, the inhibition in series [1] was 16.6%.

In series [1], `CCCCC(=O)Nc1c(OC)ccc2cc3[n+](cc12)CCc1cc(OC)c(OC)cc1-3` had an inhibition of 0%.

In turn, `COc1cc2c(cc1OC)-c1cc3ccc(OC)c(NC(=O)C4CCCCC4)c3c[n+]1CC2` had an inhibition in series [1] of 3.33%.

For `COc1cc2c(cc1OC)-c1cc3ccc(OC)c(OCC4CC4)c3c[n+]1CC2`, the inhibition in series [1] amounted to 14%.

`CCCCCOc1c(OC)ccc2cc3[n+](cc12)CCc1cc(OC)c(OC)cc1-3` returned an inhibition in series [1] of 36.7%.

For the compound `O=C(O[C@@H]1Cc2c(O)cc(O)cc2O[C@@H]1c1cc(O)c(O)c(O)c1)c1cc(O)c(O)c(O)c1`, in series [1], the inhibition was found to be 27.6%.

Broadly, the CC50 is the concentration that lowers cell viability or growth by half. `COc1cc2c(cc1OC)-c1c(Cc3cccc(Br)c3)c3ccc(OC)c(OC)c3c[n+]1CC2`: the CC50 in series [2] was determined as 45.5 µM. The selectivity ratio in series [3] is 3.06. The compound also displayed an inhibition in series [1] of 62.8%.

For the compound `COc1cc2c(cc1OC)-c1cc3ccc(OC)c(OC(=O)c4ccco4)c3c[n+]1CC2`, the inhibition in series [1] turned out to be 0%.

As to `CCCCCCNc1c(OC)ccc2cc3[n+](cc12)CCc1cc(OC)c(OC)cc1-3`, in series [1], the inhibition turned out to be 71.4%.

Consider `COc1cc2c(cc1OC)-c1cc3ccc(OC)c(NCc4ccc(Cl)cc4)c3c[n+]1CC2`, for which the inhibition in series [1] is 93.6%.

For `COc1cc2c(cc1OC)-c1cc3ccc(OC)c(NC(=O)C4CCC4)c3c[n+]1CC2`, the inhibition in series [1] was 18.9%.

Take `COC(=O)C(Oc1c(OC)ccc2cc3[n+](cc12)CCc1cc(OC)c(OC)cc1-3)c1ccccc1` (stereo not given): in series [1], the inhibition was 23.4%.

`COc1cc2c(cc1OC)-c1cc3ccc(OC)c(OC(C)c4ccccc4)c3c[n+]1CC2` (stereo not given): in series [1], the inhibition is 22.1%.

In the case of `COc1cc2c(cc1OC)-c1cc3ccc(OC)c(OCc4ccc(Cl)cc4)c3c[n+]1CC2`, the inhibition in series [1] is 28.9%.

The compound `CCCCCCCCCOc1c(OC)ccc2cc3[n+](cc12)CCc1cc(OC)c(OC)cc1-3` displayed an inhibition in series [1] of 99.9%.

Compound `COc1cc2c(cc1OC)-c1cc3ccc(OC)c(OCc4ccccn4)c3c[n+]1CC2` registered an inhibition in series [1] of 15.2%.

The compound `COc1cc2c(cc1OC)-c1c(Cc3cccc([N+](=O)[O-])c3)c3ccc(OC)c(OC)c3c[n+]1CC2` yielded an inhibition in series [1] of 13%.

Consider `COc1cc2c(cc1OC)-c1cc3ccc(OC)c(OCCc4ccc(C(F)(F)F)cc4)c3c[n+]1CC2`, for which, in series [2], the CC50 worked out at 88.9 µM. Besides, in series [3], the selectivity ratio came to 6.05. For the same compound, in series [1], the inhibition came to 56.3%.

With `COc1cc2c(cc1OC)-c1cc3ccc(OC)c(OCc4cccc(C#N)c4)c3c[n+]1CC2`, in series [1], the inhibition came out at 24.1%.

On to `COc1cc2c(cc1OC)-c1cc3ccc(OC)c(OCC4CCC4)c3c[n+]1CC2`, for which the inhibition in series [1] is 9.25%.

As for `COc1ccc(CNc2c(OC)ccc3cc4[n+](cc23)CCc2cc(OC)c(OC)cc2-4)c(OC)c1`, the inhibition in series [1] came to 36%.

In turn, `CCOc1cc2c(cc1OC)-c1cc3ccc(OC)c(NCc4ccc(F)cc4)c3c[n+]1CC2` gave an inhibition in series [1] of 24.8%.

The compound `COc1cc2c(cc1OC)-c1c(Cc3ccc(Br)cc3)c3ccc(OC)c(OC)c3c[n+]1CC2` yielded an inhibition in series [1] of 85.7%.

Take `CCCC(=O)Nc1c(OC)ccc2cc3[n+](cc12)CCc1cc(OC)c(OC)cc1-3`: the inhibition in series [1] is 5.11%.

In series [1], `COC(=O)/C=C/c1ccc(Cc2c3[n+](cc4c(OC)c(OC)ccc24)CCc2cc(OC)c(OC)cc2-3)cc1` registered an inhibition of 0%.

In series [1], `COc1cc2c(cc1OC)-c1cc3ccc(OC)c(NC(=O)c4cccc(F)c4)c3c[n+]1CC2` yielded an inhibition of 1.12%.

In the case of `COc1cc2c(cc1OC)-c1cc3ccc(OC)c(NCc4ccc(Br)cc4)c3c[n+]1CC2`, the inhibition in series [1] amounted to 18.4%.

Take `COc1cc2c(cc1OC)-c1cc3ccc(OC)c(OCc4ccc(C)cc4)c3c[n+]1CC2`: the inhibition in series [1] worked out at 25.6%.

Turning to `COc1cc2c(cc1OC)-c1cc3ccc(OC)c(OCc4ccc(F)cc4)c3c[n+]1CC2`, the inhibition in series [1] came to 10.9%.

The compound `COc1cc2c(cc1OC)-c1cc3ccc(OC)c(OC(=O)C(=O)c4cccnc4)c3c[n+]1CC2` had an inhibition in series [1] of 6.07%.

For `COc1cc2c(cc1OC)-c1cc3ccc(OC)c(OCC4CCCC4)c3c[n+]1CC2`, the 50% cytotoxic concentration (CC50) in series [2] was determined as 64 µM. In addition, the selectivity ratio in series [3] stood at 2.65. In series [1], this compound returned an inhibition of 46%.

In the case of `COc1cc2c(cc1OC)-c1cc3ccc(OC)c(NC(=O)c4cc(C)nn4C)c3c[n+]1CC2`, in series [1], the inhibition worked out at 0%.

Turning to `COc1cc2c(cc1OC)-c1cc3ccc(OC)c(OCc4ccc(C(C)C)cc4)c3c[n+]1CC2`, in series [2], the CC50 stood at 28.7 µM. For the same compound, the selectivity ratio in series [3] was 3.66. This compound also gave an inhibition in series [1] of 75%.

In turn, `COc1cc2c(cc1OC)-c1cc3ccc(OC)c(OC(=O)Cc4ccc(C(F)(F)F)cc4)c3c[n+]1CC2` registered an inhibition in series [1] of 12.4%.

In series [1], `COc1cc(Cc2c3[n+](cc4c(OC)c(OC)ccc24)CCc2cc(OC)c(OC)cc2-3)cc(OC)c1` returned an inhibition of 39%.

Consider `COc1cc2c(cc1OC)-c1c(Cc3ccccc3C)c3ccc(OC)c(OC)c3c[n+]1CC2`, for which the CC50 in series [2] was determined as 45.6 µM. Moreover, the selectivity ratio in series [3] is 3.21. For the same compound, the inhibition in series [1] was 58.4%.

Compound `CCCCCCCOc1c(OC)ccc2cc3[n+](cc12)CCc1cc(OC)c(OC)cc1-3` displayed an inhibition in series [1] of 94.4%.

In series [1], `COc1ccc(COc2c(OC)ccc3cc4[n+](cc23)CCc2cc(OC)c(OC)cc2-4)cc1OC` registered an inhibition of 12.6%.

`CCOc1cc2c(cc1OC)-c1cc3ccc(OC)c(NCc4ccc(Br)cc4)c3c[n+]1CC2` displayed an inhibition in series [1] of 8.92%.

`COc1cc2c(cc1OC)-c1c(Cc3cccc(C#N)c3)c3ccc(OC)c(OC)c3c[n+]1CC2` had an inhibition in series [1] of 4.38%.

Compound `COc1cc2c(cc1OC)-c1cc3ccc(OC)c(OCc4cc(C)cc(C)c4)c3c[n+]1CC2` registered an inhibition in series [1] of 25%.

As to `COc1cc2c(cc1OC)-c1c(Cc3cccc(C)c3)c3ccc(OC)c(OC)c3c[n+]1CC2`, the inhibition in series [1] turned out to be 0%.

`COc1ccc(C(=O)Nc2c(OC)ccc3cc4[n+](cc23)CCc2cc(OC)c(OC)cc2-4)cc1` displayed an inhibition in series [1] of 2.39%.

With `COc1cc2c(cc1OC)-c1c(Cc3ccc(C#N)cc3)c3ccc(OC)c(OC)c3c[n+]1CC2`, the inhibition in series [1] came to 16.3%.

Turning to `COc1cc2c(cc1OC)-c1c(Cc3ccc(C(C)C)cc3)c3ccc(OC)c(OC)c3c[n+]1CC2`, in series [1], the inhibition worked out at 99.9%.

As for `COc1cc2c(cc1OC)-c1cc3ccc(OC)c(NCc4ccc(C)cc4)c3c[n+]1CC2`, in series [2], the CC50 was 65.5 µM. In addition, the selectivity ratio in series [3] came out at 5.82. In series [1], this compound showed an inhibition of 79.2%.

`CCOc1cc2c(cc1OC)-c1cc3ccc(OC)c(NCc4ccc(C)cc4)c3c[n+]1CC2` returned an inhibition in series [1] of 36%.

As to `COc1cc2c(cc1OC)-c1cc3ccc(OC)c(OCc4ccccc4C#N)c3c[n+]1CC2`, the inhibition in series [1] came out at 23%.

In series [1], `CCC(=O)Nc1c(OC)ccc2cc3[n+](cc12)CCc1cc(OC)c(OC)cc1-3` yielded an inhibition of 0%.

As to `CCOc1cc2c(cc1OC)-c1cc3ccc(OC)c(NCc4ccccc4)c3c[n+]1CC2`, the inhibition in series [1] was determined as 12.4%.

For the compound `COc1cc2c(cc1OC)-c1cc3ccc(OC)c(NCc4cccc(C#N)c4)c3c[n+]1CC2`, the inhibition in series [1] was determined as 10.5%.

Consider `CCCNc1c(OC)ccc2cc3[n+](cc12)CCc1cc(OC)c(OC)cc1-3`, for which, in series [1], the inhibition worked out at 22.6%.

The compound `COc1cc2c(cc1OC)-c1cc3ccc(OC)c(NCc4ccc(F)cc4)c3c[n+]1CC2` yielded an inhibition in series [1] of 23.7%.

`COc1cc2c(cc1OC)-c1cc3ccc(OC)c(OCc4ccc(C(F)(F)F)cc4)c3c[n+]1CC2` gave an inhibition in series [1] of 38.7%.

In turn, `COc1cc2c(cc1OC)-c1cc3ccc(OC)c(NC(=O)c4ccccc4)c3c[n+]1CC2` registered an inhibition in series [1] of 0%.
